For 26 compounds, IC50 results are on record in patent US20240294522A1 (Lead Discovery Center GmbH, priority 2021, published 2024).

Each structure is given as a SMILES string. Some results are limits rather than exact numbers.

In one test the target is T1, GRK5 (Homo sapiens, UniProt P34947).
T1 construct: purchased Thermo Scientific
Briefly: Lance Kinase Activity Assay, GRK5. The note with it: biochemical Lance kinase activity assay; class symbols A-F; read-out: GRK5 LANCE Assay (IC-50). In outline:
(§1)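 IC50s from sigmoidal dose-response over 0.0025-10 μM compound, with phosphorylated ULight substrate detected by Eu anti-phospho antibody FRET after EDTA quench.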
In general terms: In TR-FRET formats the signal depends on donor and acceptor labels being close together.

The next test concerns the target T2, GRK2 (Homo sapiens, UniProt P25098).
T2 construct: purchased Thermo Scientific
T2 sequence (P25098 1-689): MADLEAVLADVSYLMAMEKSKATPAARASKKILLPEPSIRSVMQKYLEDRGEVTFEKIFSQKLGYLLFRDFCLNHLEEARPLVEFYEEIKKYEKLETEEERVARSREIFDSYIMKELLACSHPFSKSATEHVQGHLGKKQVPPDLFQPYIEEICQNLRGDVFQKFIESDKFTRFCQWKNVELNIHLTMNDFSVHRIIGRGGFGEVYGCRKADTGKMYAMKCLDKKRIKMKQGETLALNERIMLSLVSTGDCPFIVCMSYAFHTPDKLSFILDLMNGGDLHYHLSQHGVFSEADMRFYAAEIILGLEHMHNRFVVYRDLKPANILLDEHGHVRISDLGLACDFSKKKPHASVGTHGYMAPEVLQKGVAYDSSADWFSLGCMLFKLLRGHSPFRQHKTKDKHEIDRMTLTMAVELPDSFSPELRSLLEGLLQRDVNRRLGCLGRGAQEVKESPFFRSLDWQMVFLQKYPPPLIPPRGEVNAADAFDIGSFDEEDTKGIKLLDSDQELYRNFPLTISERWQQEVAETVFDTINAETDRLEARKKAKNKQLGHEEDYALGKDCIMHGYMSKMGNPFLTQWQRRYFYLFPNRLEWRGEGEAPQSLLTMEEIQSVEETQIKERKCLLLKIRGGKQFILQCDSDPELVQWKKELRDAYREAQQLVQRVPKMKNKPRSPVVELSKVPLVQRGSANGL
Put plainly: Lance Kinase Activity Assay, GRK2. The note with it: biochemical Lance kinase activity assay; class symbols A-F; read-out: GRK2 LANCE Assay (IC-50). A digest of the protocol:
as §1

T1 sequence (P34947 whole entry): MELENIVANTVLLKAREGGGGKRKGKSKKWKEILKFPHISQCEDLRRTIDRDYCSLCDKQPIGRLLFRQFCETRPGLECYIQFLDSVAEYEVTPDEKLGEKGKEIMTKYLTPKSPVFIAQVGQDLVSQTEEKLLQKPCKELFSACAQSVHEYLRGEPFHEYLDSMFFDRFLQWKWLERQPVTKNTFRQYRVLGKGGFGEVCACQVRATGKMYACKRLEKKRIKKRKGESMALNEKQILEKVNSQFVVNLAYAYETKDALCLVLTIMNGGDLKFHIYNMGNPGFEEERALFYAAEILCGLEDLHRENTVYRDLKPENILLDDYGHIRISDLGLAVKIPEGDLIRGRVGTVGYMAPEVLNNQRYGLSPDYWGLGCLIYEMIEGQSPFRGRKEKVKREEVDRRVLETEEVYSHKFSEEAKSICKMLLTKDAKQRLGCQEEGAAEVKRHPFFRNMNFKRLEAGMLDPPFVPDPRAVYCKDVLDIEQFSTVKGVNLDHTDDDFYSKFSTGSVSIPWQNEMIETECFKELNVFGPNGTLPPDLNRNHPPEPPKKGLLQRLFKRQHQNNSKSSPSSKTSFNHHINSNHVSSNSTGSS

With `C[C@@H](NC(=O)/C(C#N)=C/c1c[nH]c2ncccc12)c1ccc(Cl)c(Cl)c1` [Example 20, (R,E)-2-cyano-N-(1-(3,4-dichlorophenyl)ethyl)-3-(1H-pyrrolo[2,3-b]pyridin-3-yl)acrylamide], the IC50 on GRK5 and on GRK2 was 100 to 500 nM in each case.
Turning to `COc1cc(C(C)NC(=O)/C(C#N)=C/c2c[nH]c3ncc(-c4cnn(C)c4)cc23)ccc1[S+](C)[O-]` (stereo not shown) [Example 256, (E)-2-cyano-N-(1-(3-methoxy-4-(methylsulfinyl)phenyl)ethyl)-3-(5-(1-methyl-1H-pyrazol-4-yl)-1H-pyrrolo[2,3-b]pyridin-3-yl)acrylamide], the IC50 lay in the range of 50 to 100 nM on GRK5 and 1000 to 10000 nM at GRK2.
Consider `COc1ccc([C@@H](C)NC(=O)/C(C#N)=C/c2c[nH]c3nccc(-c4ccc(C5CCN(C)CC5)cc4)c23)cc1OC` [Example 170], for which the IC50 at GRK5 was at most 50 nM; at GRK2 it was 1000 to 10000 nM.
On to `COc1ccc([C@@H](C)NC(=O)/C(C#N)=C/c2c[nH]c3ncc(-c4cccc(CN5CCN(C(C)=O)CC5)c4)cc23)cc1OC` [Example 141, (R,E)-3-(5-(3-((4-acetylpiperazin-1-yl)methyl)phenyl)-1H-pyrrolo[2,3-b]pyridin-3-yl)-2-cyano-N-(1-(3,4-dimethoxyphenyl)ethyl)acrylamide], for which the IC50 was at most 50 nM on GRK5 and 1000 to 10000 nM at GRK2.
Regarding `COc1ccc([C@@H](C)NC(=O)/C(C#N)=C/c2c[nH]c3ncc(-c4cnn5ccccc45)cc23)cc1OC` [Example 167], the IC50 is at most 50 nM at GRK5 and 1000 to 10000 nM at GRK2.
The like results for `CC(NC(=O)/C(C#N)=C/c1c[nH]c2ncccc12)c1ccccc1-n1cccn1` (stereo not shown) [Example 38, (E)-N-(1-(2-(1H-pyrazol-1-yl)phenyl)ethyl)-2-cyano-3-(1H-pyrrolo[2,3-b]pyridin-3-yl)acrylamide] were, in that order, 1000 to 10000 nM and 1000 to 10000 nM.
The like results for `COc1ccc([C@@H](C)NC(=O)/C(C#N)=C/c2c[nH]c3ncc(-c4ccc(N5CCN(C)CC5)cc4OC)cc23)cc1OC` [Example 153] were, in that order, at most 50 nM and 500 to 1000 nM.
As for `COc1ccc([C@@H](C)NC(=O)/C=C/c2c[nH]c3ncc(-c4cccnc4)cc23)cc1OC` [Example 186, (R,E)-N-(1-(3,4-dimethoxyphenyl)ethyl)-3-(5-(pyridin-3-yl)-1H-pyrrolo[2,3-b]pyridin-3-yl)acrylamide], the IC50 is at most 50 nM on GRK5 and 1000 to 10000 nM at GRK2.
The like results for `COc1ccc([C@@H](C)NC(=O)/C=C/c2c[nH]c3nccc(-c4cccc(S(=O)(=O)N(C)C)c4)c23)cc1OC` [Example 227, (R,E)-N-(1-(3,4-dimethoxyphenyl)ethyl)-3-(4-(3-(N,N-dimethylsulfamoyl)phenyl)-1H-pyrrolo[2,3-b]pyridin-3-yl)acrylamide] were, in that order, 100 to 500 nM and 1000 to 10000 nM.
The like results for `CCN1CCN(S(=O)(=O)c2ccc(-c3cnc4[nH]cc(/C=C(\C#N)C(=O)N[C@H](C)c5ccc(OC)c(OC)c5)c4c3)cc2)CC1` [Example 121, (R,E)-2-cyano-N-(1-(3,4-dimethoxyphenyl)ethyl)-3-(5-(4-((4-ethylpiperazin-1-yl)sulfonyl)phenyl)-1H-pyrrolo[2,3-b]pyridin-3-yl)acrylamide] were, in that order, 100 to 500 nM and over 10000 nM.
The corresponding values for `N#C/C(=C\c1c[nH]c2ncccc12)C(=O)NCc1ccccc1S(=O)(=O)N1CCOCC1` [Example 41, (E)-2-cyano-N-(2-(morpholinosulfonyl)benzyl)-3-(1H-pyrrolo[2,3-b]pyridin-3-yl)acrylamide] are 100 to 500 nM and 1000 to 10000 nM.
For `COc1ccc([C@@H](C)NC(=O)/C(C#N)=C/c2c[nH]c3nc(Br)ccc23)cc1OC` [Example 90, (R,E)-3-(6-bromo-1H-pyrrolo[2,3-b]pyridin-3-yl)-2-cyano-N-(1-(3,4-dimethoxyphenyl)ethyl)acrylamide], the IC50 at GRK5 is 100 to 500 nM; at GRK2 it was over 10000 nM.
The corresponding values for `COc1ccc([C@@H](C)NC(=O)/C(C#N)=C/c2c[nH]c3ncc(-c4ccc(N5CCN(C)CC5)cc4)cc23)cc1OC` [Example 112, (R,E)-2-cyano-N-(1-(3,4-dimethoxyphenyl)ethyl)-3-(5-(4-(4-methylpiperazin-1-yl)phenyl)-1H-pyrrolo[2,3-b]pyridin-3-yl)acrylamide] are at most 50 nM and 500 to 1000 nM.
On to `C[C@@H](NC(=O)/C(C#N)=C/c1c[nH]c2ncc(-c3cnn(C)c3)cc12)c1ccc(Cl)cc1` [Example 95, (R,E)-N-(1-(4-chlorophenyl)ethyl)-2-cyano-3-(5-(1-methyl-1H-pyrazol-4-yl)-1H-pyrrolo[2,3-b]pyridin-3-yl)acrylamide], for which the IC50 on GRK5 was 50 to 100 nM; at GRK2, 1000 to 10000 nM.
For `COc1ccc([C@@H](C)NC(=O)/C(C#N)=C/c2c[nH]c3ncc(O[C@@H]4CCOC4)cc23)cc1OC` [Example 107, (E)-2-cyano-N-((R)-1-(3,4-dimethoxyphenyl)ethyl)-3-(5-(((R)-tetrahydrofuran-3-yl)oxy)-1H-pyrrolo[2,3-b]pyridin-3-yl)acrylamide], the IC50 at GRK5 was at most 50 nM; at GRK2, 500 to 1000 nM.
As to `COc1ccc([C@@H](C)NC(=O)/C=C/c2c[nH]c3ncc(-c4cnn(C)c4C)cc23)cc1OC` [Example 202, (R,E)-N-(1-(3,4-dimethoxyphenyl)ethyl)-3-(5-(1,5-dimethyl-1H-pyrazol-4-yl)-1H-pyrrolo[2,3-b]pyridin-3-yl)acrylamide], the IC50 on GRK5 was at most 50 nM; at GRK2, 1000 to 10000 nM.
The like results for `C[C@@H](NC(=O)/C(C#N)=C/c1c[nH]c2ncc(-c3cnn(C)c3)cc12)c1ccccc1` [Example 91, (R,E)-2-cyano-3-(5-(1-methyl-1H-pyrazol-4-yl)-1H-pyrrolo[2,3-b]pyridin-3-yl)-N-(1-phenylethyl)acrylamide] were, in that order, at most 50 nM and 100 to 500 nM.
As for `COc1cc(C(C)NC(=O)/C=C/c2c[nH]c3ncc(-c4cnn(C)c4)cc23)cnc1OC` (stereo not shown) [Example 265, (E)-N-(1-(5,6-dimethoxypyridin-3-yl)ethyl)-3-(5-(1-methyl-1H-pyrazol-4-yl)-1H-pyrrolo[2,3-b]pyridin-3-yl)acrylamide], the IC50 at GRK5 was 50 to 100 nM; on GRK2, over 10000 nM.
Regarding `COc1ccc([C@@H](C)NC(=O)/C=C/c2c[nH]c3nccc(-c4cnn(C)c4C)c23)cc1OC` [Example 237, (R,E)-N-(1-(3,4-dimethoxyphenyl)ethyl)-3-(4-(1,5-dimethyl-1H-pyrazol-4-yl)-1H-pyrrolo[2,3-b]pyridin-3-yl)acrylamide], the IC50 is 100 to 500 nM on GRK5 and over 10000 nM at GRK2.
Consider `N#C/C(=C\c1c[nH]c2ncccc12)C(=O)NCc1cccc(Cl)c1` [Example 60, (E)-N-(3-chlorobenzyl)-2-cyano-3-(1H-pyrrolo[2,3-b]pyridin-3-yl)acrylamide], for which the IC50 at GRK5 and at GRK2 was 100 to 500 nM each time.
For `CS(=O)(=O)Nc1ccccc1CNC(=O)/C(C#N)=C/c1c[nH]c2ncccc12` [Example 42, (E)-2-cyano-N-(2-(methylsulfonamido)benzyl)-3-(1H-pyrrolo[2,3-b]pyridin-3-yl)acrylamide], the IC50 lay within 500 to 1000 nM on GRK5 and 1000 to 10000 nM at GRK2.
In the case of `N#C/C(=C\c1c[nH]c2ncccc12)C(=O)NC(CO)c1ccccc1` (stereo not shown) [Example 32, (E)-2-cyano-N-(2-hydroxy-1-phenylethyl)-3-(1H-pyrrolo[2,3-b]pyridin-3-yl)acrylamide], the IC50 at GRK5 and on GRK2 was 50 to 100 nM each time.
For `COc1ccc([C@@H](C)NC(=O)/C(C#N)=C/c2c[nH]c3nccc(-c4cccc(N5CCN(C)CC5)c4)c23)cc1OC` [Example 172, (R,E)-2-cyano-N-(1-(3,4-dimethoxyphenyl)ethyl)-3-(4-(3-(4-methylpiperazin-1-yl)phenyl)-1H-pyrrolo[2,3-b]pyridin-3-yl)acrylamide], the IC50 at GRK5 is at most 50 nM; on GRK2 it was 1000 to 10000 nM.
For the compound `C[C@@H](NC(=O)/C(C#N)=C/c1c[nH]c2ncccc12)c1cccc(Cl)c1` [Example 13, (R,E)-N-(1-(3-chlorophenyl)ethyl)-2-cyano-3-(1H-pyrrolo[2,3-b]pyridin-3-yl)acrylamide], the IC50 fell in the range of 50 to 100 nM on GRK5 and 100 to 500 nM on GRK2.
The like results for `COc1ccc([C@@H](C)NC(=O)C(C#N)=Cc2c[nH]c3ncc(-c4ccc(CCN(C)C)cc4)cc23)cc1OC` (stereo in doubt) [Example 135] were, in that order, at most 50 nM and 1000 to 10000 nM.
On to `COc1ccc([C@@H](C)NC(=O)/C(C#N)=C/c2c[nH]c3ncc(-c4cncnc4)cc23)cc1OC` [Example 120, (R,E)-2-cyano-N-(1-(3,4-dimethoxyphenyl)ethyl)-3-(5-(pyrimidin-5-yl)-1H-pyrrolo[2,3-b]pyridin-3-yl)acrylamide], for which the figures for the IC50 on GRK5 and at GRK2 were 50 to 100 nM and 1000 to 10000 nM, respectively.
